Measured values reported in US7947285B2, “Methods for preventing post endoscopic retrograde cholangiopancreatography pancreatitis” (priority 2003, dated 2011).
Where no end group is shown, it is not given here.

How the values were obtained:
[1] = tested on: patients undergoing ERCP; assay: Incidence and severity of post-ERCP pancreatitis, randomized double-blind placebo controlled study; format: in vivo, human
Excerpt: This was a prospectively randomized, parallel group, double-blind, placebo controlled study conducted at one center. This was the ideal study design for evaluation of the prophylactic use of sPS in ERCP to decrease the incidence of post-ERCP pancreatitis. Parallel group design was necessary because patients usually require only one ERCP and, in any case, the first procedure might have an unknown effect on the outcome of a subsequent ERCP. Double-blinding the study was necessary because a major component of the evaluation related to symptoms such as pain and nauseas, which are, in part, subjective for the patient. The final classification of each patient required an overall medical judgment by the investigator. In order for this to be as objective as possible, the assessor (Principal Investigator) had to be blinded. Placebo control with normal saline was required because there is no approved or medically accepted drug to prevent post-ERCP pancreatitis. Further, sterile normal saline, USP for injection was completely safe with no pharmacological effect and produced a clear, colorless solution, which was indistinguishable from reconstituted sPS.
Patients undergoing ERCP for medical reasons were the appropriate population to evaluate because only those requiring ERCP have the procedure and are subject to the known risk of post-ERCP pancreatitis. The patients had to meet all of the inclusion criteria to be enrolled in the study. […] Subjects were discontinued for the following reasons: (1) voluntary withdraw at subject's request; (2) noncompliance by subject to study procedures; (3) protocol violation such as discovery of pancreas divisum at the time of the ERCP, or (4) excessive toxicity from any study procedure or drug which in the judgment of the investigator makes continuation in the study contrary to the subject's medical interests. Subjects who discontinued from the study after receiving study drug were followed for safety and were replaced.
This study compared synthetic porcine secretin (sPS) at a dose of 16 mcg (8 mL) (24 mcg for procedures longer than 30 minutes) given as a slow IV push over one minute and an equal volume of physiologic sterile saline USP for injection. Subjects were randomly assigned to one of two treatment groups (sPS vs. saline placebo) based on a randomization schedule generated at ChiRhoClin, Inc (Burtonsville, Md.). […] The final syringe with an identical appearing clear, colorless solution of identical volume containing either reconstituted sPS or saline was then delivered to the investigator performing the ERCP. The randomization code assigned patients in a 1:1 manner between the two treatments and was balanced in blocks of 250 patients.
Incidence of post-ERCP pancreatitis (sPS vs. placebo) was evaluated as the primary efficacy variable in this study. Secondary efficacy variables included incidences of post-ERCP pancreatitis in the following sub-populations: (1) cannulation of CBD; (2) sphincterotomy of CBD; (3) cannulation of pancreatic duct; (4) sphincterotomy of pancreatic duct; (5) stent insertion and removal into CBD; (6) stent insertion and removal into pancreatic duct; (7) stone extraction (basket) from CBD; (8) stone extraction (balloon) from CBD; (9) manometry of CBD; (10) manometry of pancreatic duct; (11) pain scores pre and post ERCP (0-10 scale); (12) nausea scores pre and post ERCP (0-10 scale); (13) vomiting scores pre and post ERCP (0-10 scale); (14) return to baseline activity (pre-ERCP); and (15) return to work.
In addition, the severity of pancreatitis was graded as defined by Cotton (Cotton, PB Gastrointest. Endosc. 40(4):514-18 (1994)), using the following criteria: (1) Minimal—managed on an outpatient basis; (2) Mild—Required hospitalization ≦3 days; (3) Moderate—required hospitalization for 4 to 10 days; and (4) Severe—required hospitalization for >10 days, ICU admission, surgical intervention or death. […]

[2] = tested on: patients undergoing ERCP; assay: Vital signs (systolic and diastolic BP, pulse) pre and post ERCP; format: in vivo, human
Protocol: This study evaluated the following safety variables: (1) Adverse events; (2) Vital signs; (3) Serum Amylase (when clinically indicated); and (4) Serum Lipase (when clinically indicated). No drug concentration measurements were assessed in this study.
Primary and secondary efficacy variables were compared between the treatment groups using the Fisher Exact Test or Cochran-Mantel Haenszel Association Test. Adverse events and vital signs (heart rate, blood pressure) were compared between the treatment groups using the t-test. The clinical assumption on which the power calculation is based was on incidence of post-ERCP pancreatitis among all patients without pancreas divisum of 6%. In order to show a 50% reduction in the rate of post-ERCP pancreatitis with a significance of p=0.05, at a power of 80%, 749 evaluable patients per treatment group (sPS vs. placebo) were needed.
Systolic and Diastolic blood pressure and pulse were measured for all patients' pre and post-ERCP procedure.

[3] = of 44 cases, hospitalization 4 to 10 days
[4] = of 44 cases, hospitalization >10 days, ICU, surgery or death
[5] = of 44 cases, hospitalization ≦3 days
[6] = of 44 cases, managed on an outpatient basis
[7] = overall, N = 488, 16 mcg IV (24 mcg if >30 min), p 0.0161 vs placebo
[8] = sub-population Cannulation of CBD, N = 361
[9] = sub-population Cannulation of CBD, N = 361, p 0.0010
[10] = sub-population Cannulation of Pancreatic Duct, N = 220
[11] = sub-population Cannulation of Pancreatic Duct, N = 220, p 0.1237
[12] = sub-population Manometry of CBD, N = 19
[13] = sub-population Manometry of CBD, N = 19, p 0.0819
[14] = sub-population Manometry of Pancreatic Duct, N = 11
[15] = sub-population Manometry of Pancreatic Duct, N = 11, p 0.3665
[16] = sub-population Sphincterotomy of CBD, N = 140
[17] = sub-population Sphincterotomy of CBD, N = 140, p 0.0001
[18] = sub-population Sphincterotomy of Pancreatic Duct, N = 26
[19] = sub-population Sphincterotomy of Pancreatic Duct, N = 26, p 0.1666
[20] = sub-population Stent Insertion into CBD, N = 108
[21] = sub-population Stent Insertion into CBD, N = 108, p 0.0856
[22] = sub-population Stent Insertion into Pancreatic Duct, N = 23
[23] = sub-population Stent Insertion into Pancreatic Duct, N = 23, p 1.0000
[24] = sub-population Stent Removal from CBD, N = 58
[25] = sub-population Stent Removal from CBD, N = 58, p 0.6185
[26] = sub-population Stent Removal from Pancreatic Duct, N = 17
[27] = sub-population Stent Removal from Pancreatic Duct, N = 17, p 1.0000
[28] = sub-population Stone Extraction (Balloon), N = 55
[29] = sub-population Stone Extraction (Balloon), N = 55, p 1.0000
[30] = sub-population Stone Extraction (Basket), N = 35
[31] = sub-population Stone Extraction (Basket), N = 35, p 0.2298

synthetic porcine secretin (HSDGTFTSELSRLRDSARLQRLLQGLV-NH2; ends and bridges not checked; UniProt P63298 33-59, looked up) [SPS, synthetic form of porcine secretin, a 27 amino acid gastrointestinal peptide hormone]
Post-ERCP Pancreatitis Severity Total (%) ([1]; N = 488/44): 100.0% | Post-ERCP Pancreatitis Severity Total: number of cases ([1]; N = 488/44): 44 | Post-ERCP Pancreatitis Severity Unknown (%) ([1]; of 44 cases): 15.91% | Post-ERCP Pancreatitis Severity Unknown: number of cases ([1]; of 44 cases): 7 | Post-ERCP Pancreatitis Severity Moderate (%) [1, 3]: 20.45% | Post-ERCP Pancreatitis Severity Moderate: number of cases [1, 3]: 9 | Post-ERCP Pancreatitis Severity Severe (%) [1, 4]: 2.27% | Post-ERCP Pancreatitis Severity Severe: number of cases [1, 4]: 1 | Post-ERCP Pancreatitis Severity Mild (%) [1, 5]: 31.82% | Post-ERCP Pancreatitis Severity Mild: number of cases [1, 5]: 14 | Post-ERCP Pancreatitis Severity Minimal (%) [1, 6]: 29.55% | Post-ERCP Pancreatitis Severity Minimal: number of cases [1, 6]: 13 | Incidence of Post-ERCP Pancreatitis, No (%) ([1]; overall, N = 488, 16 mcg IV): 90.98% | Incidence of Post-ERCP Pancreatitis, No: number of patients ([1]; overall, N = 488, 16 mcg IV): 444 | Incidence of Post-ERCP Pancreatitis, Yes (%) [1, 7]: 9.02% | Incidence of Post-ERCP Pancreatitis, Yes: number of patients [1, 7]: 44 | magnitude of the decrease in the frequency of post-ERCP pancreatitis ([1]; relative to placebo, 979 patients, p=0.0137): 36.2% | Post-ERCP Pancreatitis No (%) [1, 8]: 92.52% | Post-ERCP Pancreatitis No: number of patients [1, 8]: 334 | Post-ERCP Pancreatitis Yes (%) [1, 9]: 7.48% | Post-ERCP Pancreatitis Yes: number of patients [1, 9]: 27 | Post-ERCP Pancreatitis No (%) [1, 10]: 86.36% | Post-ERCP Pancreatitis No: number of patients [1, 10]: 190 | Post-ERCP Pancreatitis Yes (%) [1, 11]: 13.64% | Post-ERCP Pancreatitis Yes: number of patients [1, 11]: 30 | Post-ERCP Pancreatitis No (%) [1, 12]: 78.95% | Post-ERCP Pancreatitis No: number of patients [1, 12]: 15 | Post-ERCP Pancreatitis Yes (%) [1, 13]: 21.05% | Post-ERCP Pancreatitis Yes: number of patients [1, 13]: 4 | Post-ERCP Pancreatitis No (%) [1, 14]: 54.58% | Post-ERCP Pancreatitis No: number of patients [1, 14]: 6 | Post-ERCP Pancreatitis Yes (%) [1, 15]: 45.45% | Post-ERCP Pancreatitis Yes: number of patients [1, 15]: 5 | Post-ERCP Pancreatitis No (%) [1, 16]: 95.00% | Post-ERCP Pancreatitis No: number of patients [1, 16]: 133 | Post-ERCP Pancreatitis Yes (%) [1, 17]: 5.00% | Post-ERCP Pancreatitis Yes: number of patients [1, 17]: 7 | Post-ERCP Pancreatitis No (%) [1, 18]: 57.85% | Post-ERCP Pancreatitis No: number of patients [1, 18]: 14 | Post-ERCP Pancreatitis Yes (%) [1, 19]: 46.15% | Post-ERCP Pancreatitis Yes: number of patients [1, 19]: 12 | Post-ERCP Pancreatitis No (%) [1, 20]: 97.22% | Post-ERCP Pancreatitis No: number of patients [1, 20]: 105 | Post-ERCP Pancreatitis Yes (%) [1, 21]: 2.78% | Post-ERCP Pancreatitis Yes: number of patients [1, 21]: 3 | Post-ERCP Pancreatitis No (%) [1, 22]: 78.26% | Post-ERCP Pancreatitis No: number of patients [1, 22]: 18 | Post-ERCP Pancreatitis Yes (%) [1, 23]: 21.74% | Post-ERCP Pancreatitis Yes: number of patients [1, 23]: 5 | Post-ERCP Pancreatitis Yes (%) ([1]; sub-population Stent Insertion into Pancreatic Duct, N = 23, p 1.0000, listed as sPS): 21.7% | Post-ERCP Pancreatitis No (%) [1, 24]: 98.28% | Post-ERCP Pancreatitis No: number of patients [1, 24]: 57 | Post-ERCP Pancreatitis Yes (%) [1, 25]: 1.72% | Post-ERCP Pancreatitis Yes: number of patients [1, 25]: 1 | Post-ERCP Pancreatitis No (%) [1, 26]: 88.24% | Post-ERCP Pancreatitis No: number of patients [1, 26]: 15 | Post-ERCP Pancreatitis Yes (%) [1, 27]: 11.76% | Post-ERCP Pancreatitis Yes: number of patients [1, 27]: 2 | Post-ERCP Pancreatitis No (%) [1, 28]: 92.73% | Post-ERCP Pancreatitis No: number of patients [1, 28]: 51 | Post-ERCP Pancreatitis Yes (%) [1, 29]: 7.27% | Post-ERCP Pancreatitis Yes: number of patients [1, 29]: 4 | Post-ERCP Pancreatitis No (%) [1, 30]: 97.14% | Post-ERCP Pancreatitis No: number of patients [1, 30]: 34 | Post-ERCP Pancreatitis Yes (%) [1, 31]: 2.86% | Post-ERCP Pancreatitis Yes: number of patients [1, 31]: 1 | Diastolic BP post-ERCP, Mean (SD) ([2]; N = 381): 68.7 (13.4) (N = 381) mm/Hg | Pulse post-ERCP, Mean (SD) ([2]; N = 381): 91.0 (20.4) (N = 381) | Systolic BP post-ERCP, Mean (SD) ([2]; N = 381): 131.0 (23.9) (N = 381) mm/Hg | Diastolic BP pre-ERCP, Mean (SD) ([2]; baseline, N = 397): 74.6 (12.8) (N = 397) mm/Hg | Pulse pre-ERCP, Mean (SD) ([2]; baseline, N = 397): 81.0 (15.7) (N = 397) | Systolic BP pre-ERCP, Mean (SD) ([2]; baseline, N = 397): 142.3 (24.9) (N = 397) mm/Hg | Change in Systolic BP, Mean (SD) ([2]; pre to post ERCP, N = 378, p 0.0007): −11.4 (29.2) (N = 378) mm/Hg | Change in Diastolic BP, Mean (SD) ([2]; pre to post ERCP, N = 378, p 0.1163): −6.0 (15.3) (N = 378) mm/Hg | Change in Pulse, Mean (SD) ([2]; pre to post ERCP, N = 378, p 0.1324): 9.7 (17.7) (N = 378)
